Tests used:
CVB3 [1] = assay: Antiviral activity of MAO inhibitors against CVB3; assay type: cell-based, Coxsackievirus B3
EV71 [2] = assay: Antiviral activity of MAO inhibitors against EV71; assay type: cell-based, Enterovirus 71
H1N1 [3] = assay: Virus yield reduction assay, H1N1; assay type: cell-based, influenza virus A/human/Hubei/86/2009 (H1N1); details: MDCK cells, — = less than 90% inhibition
Experimental: Virus yield reduction assays were also carried out to evaluate further the protective effects of the tested compounds.
The virus suspension, serially diluted 10-fold with DMEM containing 2% FBS, was inoculated to cells in a 96-well plate. After 1 h incubation at 37°C in 5% CO2, unbinding virus was washed out and DMEM maintenance medium supplemented with 2% FBS was added to the cells. After 2 days, the infected cells were monitored for cytopathic effects (CPEs). The virus titer was calculated by the Reed–Muench method.

H1N1 [4] = assay: Inhibition of H1N1-induced CPE in MDCK cells; assay type: cell-based, influenza virus A/human/Hubei/86/2009 (H1N1); details: MDCK cells; for EC50: Influenza A virus, H1N1, 100 TCID50, 48 h, CPE, — = less than 50% inhibition, read-out: EC50 H1N1
[5] = Cytotoxicity, MTT method, MDCK cells; assay type: cell-based, canine; details: dog, uninfected MDCK cells, host cells of H1N1: MDCK
Experimental: (§1) The 50% cell cytotoxic concentrations (CC50s) of compounds were calculated using SPSS software. SI were calculated from the ratio of CC50: EC50.

[6] = Cytotoxicity, MTT method, uninfected RD cells; assay type: cell-based; details: human; RD cells, MTT, 48 h; mean ± SD of three experiments; read-out: CC50, compound concentration required to reduce cell viability by 50%
Experimental: as §1

ADV-7 [7] = assay: Virus yield reduction assay, ADV-7; assay type: cell-based, adenovirus 7; details: Human mastadenovirus B; HeLa cells; read-out: EC90 ADV-7, concentration required to inhibit 90% virus yield
ADV-7 [8] = assay: Inhibition of ADV-7-induced CPE in HeLa cells
Experimental: (§2) Cell viability was assessed by an MTT assay, which functions based on the reduction of a MTT into formazan dye by active mitochondria. The cells were treated with 100 μL of MTT (1 mg/mL, Sigma) and incubated at 37°C for 4 h. The reaction was blocked by DMSO and measured in a microplate reader (Bio-Tek Instruments) at 492 nm. The untreated control was arbitrarily set as 100%.
(§3) Confluent cell monolayers in 96-well dishes were infected with 100 TCID50 of corresponding virus dilution mixed with serial dilutions of tested compounds for 1 h at 37°C. Inocula were aspirated and the cells were then incubated with various concentrations of DMEM/tested compounds at 37°C, 5% CO2 for 48 h. CPE were observed microscopically and the viability of the cells was determined using MTT assays. […] The concentrations required for the tested compounds to achieve 50% protection of cells from virus-induced CPE were determined.

HSV-1 [9] = assay: Virus yield reduction assay, HSV-1; assay type: cell-based, herpes simplex virus 1; details: Hep-2 cells; — = less than 90% inhibition
EV71 [10] = assay: Adsorption analysis, EV71 on RD cells; assay type: cell-based, Enterovirus 71; details: 160 μM pimprinethine, 80 μM WS-30581 A, 80 μM WS-30581 B; EV71 10^4 TCID50; 2 h adsorption
[11] = Cytotoxicity, MTT method, HeLa cells; assay type: cell-based; details: human, uninfected HeLa cells; host cells of ADV-7: HeLa, MTT, 48 h; read-out: CC50 (ADV-7)
Experimental: as §1

CVB3 [12] = assay: Inhibition of CVB3-induced CPE in Hep-2 cells
Experimental: as §2, §3

EV71 [13] = assay: Virucidal activity against EV71; assay type: cell-based, Enterovirus 71; details: 80 μM pimprinethine, 40 μM WS-30581 A or 40 μM WS-30581 B; 24 h at 4°C; 10^3 TCID50
EV71 [14] = assay: Progeny virus yield reduction, EV71 in RD cells; assay type: cell-based, Enterovirus 71
EV71 [15] = details: EV71, RD cells
Experimental: as §2, §3

EV71 [16] = assay: Effective stage analysis, EV71 in RD cells; assay type: cell-based, Enterovirus 71; details: 48 h
[17] = Cytotoxicity, MTT method, Hep-2 cells; assay type: cell-based; details: human, uninfected Hep-2 cells; host cells of CVB3: Hep-2, MTT, 48 h; read-out: CC50 (CVB3)
Experimental: as §1

EV71 [18] = assay: microbe, parasite or virus in culture; details: Enterovirus A, EV71, RD, 48 h, read-out: EC50, compound concentration required to achieve 50% protection from virus-induced cytopathogenicity
Experimental: as §2, §3

[19] = Cytotoxicity, ATPLite luminescence-based assay, RD cells; assay type: cell-based; details: human
From the text: The ATPLite assay may be more sensitive to cytotoxicity than the MTT method. For RD and Hep-2 cells, similar results were obtained, and for HeLa and MDCK cells, the values of CC50 from the ATPLite assay were smaller than those from MTT assays (Tables 1, 2 and 3).

EV71 [20] = assay: Release analysis, EV71 from RD cells; assay type: cell-based, Enterovirus 71; details: 80 μM pimprinethine, 40 μM WS-30581 A or B; 12 h p.i.
HSV-1 [21] = assay: Plaque reduction assay, HSV-1 in Hep-2 cells
Experimental: Confluent monolayers of Hep-2 cells, seeded in a 24-well plate, were infected with HSV-1 at a density of 60–80 plaque-forming units (PFU) per well and treated with media (pre-warmed DMEM containing 2% FBS, 0.8% low-melting agarose) mixed with or without the serially diluted tested compounds for the periods indicated following different procedures. The cells were incubated at 37°C until plaques appeared, followed by fixing with 10% formaldehyde and staining with 0.5% crystal violet. The plaques were counted by visual examination. The ratio of the number of plaques in the treated group to that in the untreated control was calculated.
A plaque reduction assay was performed to measure the inhibitory effects of the test compounds against HSV-1 infection.

CVB3 [22] = assay: Virus yield reduction assay, CVB3; assay type: cell-based, Coxsackievirus B3; details: Enterovirus B, CVB3; Hep-2 cells; — = less than 90% inhibition; read-out: EC90 CVB3, concentration required to inhibit 90% virus yield
EV71 [23] = assay: Dependence of anti-EV71 activity on virus inoculum (cell viability, MTT) in RD cells; assay type: cell-based, Enterovirus 71; details: virus concentration above 10^4 TCID50

## N[C@@H]1C[C@H]1c1ccccc1 [TCP]
CVB3 [1]
  antiviral activity against CVB3: inactive
EV71 [2]
  antiviral activity against EV71: inactive

## NC12CC3CC(CC(C3)C1)C2 [Amantadine, reference compound]
H1N1 [3]; Influenza A virus, H1N1, read-out: EC90 H1N1, concentration required to inhibit 90% virus yield
  EC90: 90 ± 12 µM
H1N1 [4]
  EC50: 73 ± 8 µM
  SI H1N1, ratio CC50/EC50: >27
[5]
  CC50 at 48 h: > 2000 µM

## C#CCN(C)Cc1ccccc1 [pargyline]
CVB3 [1]
  antiviral activity against CVB3: inactive
EV71 [2]
  antiviral activity against EV71: inactive

## CCCCc1ncc(-c2c[nH]c3ccccc23)o1 [WS-30581 B]
[6]
  CC50 at 48 h: 229 ± 10 µM
H1N1 [3]
  EC90 H1N1, concentration required to inhibit 90% virus yield: — (—, less than 50% or 90% inhibition)
ADV-7 [7]
  EC90: 48 ± 6 µM
ADV-7 [8]; HeLa cells
  SI ADV-7, ratio CC50/EC50: 24
ADV-7 [8]; Human mastadenovirus B, HeLa, 48 h, read-out: EC50 ADV-7
  EC50: 15 ± 2 µM
HSV-1 [9]
  EC90 HSV-1, concentration required to inhibit 90% virus yield: — (—, less than 50% or 90% inhibition)
EV71 [10]
  virus titer during virus attachment (adsorption): no significant decrease
H1N1 [4]
  EC50: 24 ± 5 µM
  SI H1N1, ratio CC50/EC50: 9
  inhibition of H1N1 infection: less than 70%
[11]
  CC50 at 48 h: 354 ± 14 µM
CVB3 [12]; Enterovirus B, CVB3, HEp-2, 48 h, read-out: EC50 CVB3
  EC50: 12 ± 2 µM
CVB3 [12]; Hep-2 cells
  SI CVB3, ratio CC50/EC50: 7
EV71 [13]
  virus titers of EV71 mixture with vs without compound (virucidal activity): No significant difference
EV71 [14]; 80 μM, 100 TCID50 EV71, RD cells, 10 h
  reduction in progeny virus titers relative to virus control: 3.0 log
EV71 [14]; Enterovirus A, EV71, RD cells, progeny viral yield, read-out: EC90, compound concentration required to achieve 90% virus yield reduction
  EC90: 18 ± 2 µM
EV71 [15]
  SI (selectivity index), ratio CC50/EC50: 21
EV71 [16]; 80 μM, added post infection, EV71 100 TCID50
  virus titer reduction vs untreated cells: approximately 5.0 log
EV71 [16]; Enterovirus A, RD, added post infection (therapeutic), EV71 100 TCID50, read-out: viability rates of the infected cells
  viability at 80 µM: ~100%
[17]
  CC50 at 48 h: 83 ± 6 µM
[5]
  CC50 at 48 h: 215 ± 28 µM
EV71 [18]
  EC50: 11 ± 3 µM
[19]
  CC50: 267 ± 31 µM
EV71 [20]
  release of EV71 from RD cells: unaffected
HSV-1 [21]; Hep-2 cells
  SI HSV-1, ratio CC50/EC50: 6
HSV-1 [21]; Human alphaherpesvirus 1, HEp-2, read-out: EC50 HSV-1
  EC50: 14 ± 4 µM
HSV-1 [21]; inhibition achievable, Hep-2 cells
  inhibition of HSV-1-induced plaque formation: approximately 80%
CVB3 [22]
  EC90: 42 ± 6 µM
EV71 [23]
  anti-EV71 inhibition at excessive virus inoculum: Inhibition was eliminated
